In patent US20150330992A1, “RAPID DISCOVERY AND SCREENING OF ENZYME ACTIVITY USING MASS SPECTROMETRY” (THE REGENTS OF THE UNIVERSITY OF CALIFORNIA, priority 2012, published 2015):
Where two headings read alike, the source gives them in different places.

Experiments:
[1] = system: Alicycyclobacillus acidocaldarius β-glucosidase; conditions: lacking error analysis; read-out: KM, previously reported; cited from earlier work
[2] = system: Alicycyclobacillus acidocaldarius β-glucosidase; test: Steady-state kinetic analysis of β-glucosidase with varied cellobiose by oxime-NIMS; format: biochemical; conditions: 95% confidence level, r^2=0.997
Procedure: A velocity versus substrate concentration analysis was used to determine the kinetic parameters for β-glucosidase (Aa-βG) from the thermoacidophilic bacterium Alicycyclobacillus acidocaldarius 22 using pure cellobiose as substrate. The experimental data were analyzed using the NonlinearModelFit routine of Mathematic v.8 (Wolfram Research) and v=kcat [S]/(KM+[S]) (kcat, KM, and [S] have their usual definitions).
Glucose formed at different time points from the reaction of Alicycyclobacillus acidocaldarius β-glucosidase with varied cellobiose concentration was quantified and used for steady-state kinetic analysis. The data were analysed using the NonlinearModelFit routine of Mathematic v.8 and v=kcat [S]/(KM+[S]), where kcat, KM, and [S] have their usual definitions.

[3] = molecular target: T1, chloramphenicol acetyltransferase (CAT) (Escherichia coli, UniProt P62577); conditions: 0.5 mM probe, 2 mM acetyl-CoA, 5 minutes; versus control lysate
T1 sequence (P62577 whole entry, looked up): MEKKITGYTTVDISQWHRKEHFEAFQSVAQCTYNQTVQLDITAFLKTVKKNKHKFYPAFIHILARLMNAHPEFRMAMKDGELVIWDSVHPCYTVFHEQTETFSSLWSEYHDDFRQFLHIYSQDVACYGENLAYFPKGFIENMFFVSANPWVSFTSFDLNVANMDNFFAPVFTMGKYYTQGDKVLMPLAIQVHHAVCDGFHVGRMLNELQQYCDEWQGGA
Procedure: Enzymatic activity assay—Overnight cultures of E. coli DH1 harboring either pBbB8k-GFP or pBbB8k-CAT were diluted 1:10 in LB with 50 μg mL^−1 kanamycin, and grown for 1 hour at 37° C., after which they were induced with 0.2% (w/v) arabinose. After 2 hours of growth, 0.5 mL of the culture was centrifuged at ˜12000×g for 1 minute, the pellet was resuspended in 0.25 mL aqueous 50 mM sodium phosphate (pH 7.5) and sonicated for 30 seconds. Acetyl-CoA was added to a final concentration of 2 mM and 11 to a final concentration of 0.5 mM. The mixture was mixed and incubated at room temperature for 5 minutes, and subsequently quenched with an equal volume of methanol. A 0.3 μL droplet of the mixture was spotted onto a NIMS chip, and the excess liquid removed 5 seconds later by touching it with a Kimwipe (Kimberly-Clark). The spotted area was washed twice with 1 μL deionized water. The NIMS chip was taped to a modified standard MALDI plate, which was then loaded into an Applied Biosystems 4800 MALDI time of flight (TOF)//TOF mass spectrometer. […] Spectra were acquired in manual mode and positive polarity.

cytochrome P450BM3 = molecular target: T2, cytochrome P450BM3 (Priestia megaterium, UniProt P14779); test: Whole-cell PECAN detection of cytochrome P450BM3 activity; format: cell-based, E. coli; conditions: 2 mM probe, 30° C., 16 h; versus GFP control
T2 construct: expressed in transfected cells; host or cells: E. coli liquid culture in terrific broth with d-aminolevulinic acid
T2 sequence (P14779 whole entry): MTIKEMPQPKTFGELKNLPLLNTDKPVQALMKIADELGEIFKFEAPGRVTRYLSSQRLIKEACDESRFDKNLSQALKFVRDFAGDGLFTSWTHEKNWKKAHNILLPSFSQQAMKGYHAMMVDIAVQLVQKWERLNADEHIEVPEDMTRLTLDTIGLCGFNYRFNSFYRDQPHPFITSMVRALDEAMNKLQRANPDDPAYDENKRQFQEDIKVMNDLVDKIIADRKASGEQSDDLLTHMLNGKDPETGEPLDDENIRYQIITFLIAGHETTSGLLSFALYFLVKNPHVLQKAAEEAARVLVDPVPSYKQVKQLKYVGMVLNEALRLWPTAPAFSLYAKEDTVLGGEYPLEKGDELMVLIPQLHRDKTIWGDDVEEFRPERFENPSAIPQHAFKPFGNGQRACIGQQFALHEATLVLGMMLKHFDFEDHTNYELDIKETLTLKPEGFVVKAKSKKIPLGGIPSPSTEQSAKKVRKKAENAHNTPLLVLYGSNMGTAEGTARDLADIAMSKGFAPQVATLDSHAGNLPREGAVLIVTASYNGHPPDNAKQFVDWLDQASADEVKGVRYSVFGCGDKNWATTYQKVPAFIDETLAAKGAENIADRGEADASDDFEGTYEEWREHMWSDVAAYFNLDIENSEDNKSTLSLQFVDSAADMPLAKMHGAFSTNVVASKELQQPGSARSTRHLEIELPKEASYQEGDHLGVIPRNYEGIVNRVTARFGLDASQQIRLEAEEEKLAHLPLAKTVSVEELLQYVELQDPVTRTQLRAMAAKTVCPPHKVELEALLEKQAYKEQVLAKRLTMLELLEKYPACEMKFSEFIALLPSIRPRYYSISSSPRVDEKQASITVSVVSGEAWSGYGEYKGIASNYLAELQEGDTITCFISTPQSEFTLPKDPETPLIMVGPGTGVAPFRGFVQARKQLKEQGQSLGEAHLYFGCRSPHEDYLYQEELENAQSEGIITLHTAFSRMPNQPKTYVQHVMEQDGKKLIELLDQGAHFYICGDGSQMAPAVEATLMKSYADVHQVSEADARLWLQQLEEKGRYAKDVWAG
Procedure: The CAEE PECAN probe was used to detect cytochrome P450BM3 activity in whole E. coli cell culture expressing cytochrome P450BM3 using NIMS technology. To 5 mL of E. coli liquid culture in teriffic broth supplemented with 0.5 mM d-aminolevulinic acid, expressing either GFP or cytochrome P450BM3, was added the CAEE PECAN probe to a final concentration of 2 mM and DMSO to a final concentration of 2%. The bacterial cultures were shaken in baffled borosilicate culture tubes at 30° C. for 16 h and quenched with an equal volume of methanol. 5 uL, of this mixture was then mixed with 5 uL, of click reaction solution [50 mM Tris(3-hydroxypropyltriazolylinethyl)amine (THPTA), 50 mM sodium ascorbate, 10 mM copper sulfate and 0.5 mM PECAN tag Nz-NPrg (structure shown below) in 50:50 water:methanol] and left to react overnight. NIMS analysis was performed as described above.

[4] = molecular target: T1, chloramphenicol acetyltransferase (CAT); test: PECAN detection of CAT activity in E. coli cell lysate; format: biochemical; design: expressed in transfected cells; host or cells: E. coli DH1 harboring pBbB8k-CAT, arabinose-induced, sonicated lysate; conditions: cell lysate with added acetyl-CoA, 2 mM probe
Procedure: Acetyl-CoA was added to a final concentration of 5 mM and the ChlorHexy PECAN probe to a final concentration of 2 mM. […] 5 uL, of the mixture was then mixed with 5 uL of click reaction solution [50 mM Tris(3-hydroxypropyltriazolylmethyl)amine (THPTA), 50 mM sodium ascorbate, 10 mM copper sulfate and 0.5 mM PECAN tag Nz-N3 (structure shown below) in 50:50 water:methanol] and left to react overnight. […] The spotted area was washed with 2×1 μL deionized water and NIMS spectra were obtained.

[5] = molecular target: T1, chloramphenicol acetyltransferase (CAT); test: PECAN detection of CAT activity in whole E. coli cell culture; format: cell-based; design: expressed in transfected cells; host or cells: E. coli DH1 harboring pBbB8k-CAT, arabinose-induced, sonicated lysate; conditions: whole cell culture without exogenous cofactors, 2 mM probe, 1 h
Procedure: For the detection of CAT activity in E. coli cell culture, to 5 mL, of E. coli culture in LB medium expressing either GFP or CAT was added the ChlorHexy PECAN probe to a final concentration of 2 mM. The bacterial cultures were shaken at 37° C. for 1 h and quenched with an equal volume of methanol. 5 uL of this mixture was then mixed with 5 ul, of click reaction solution (recipe described above) and left to react overnight. NIMS analysis was performed as described above.
In FIG. 25, the 42-mass unit shift relative to the GFP control was the mass of a single acetyl group attached to the probe.

O=C[C@H](O)[C@@H](O)[C@H](O[C@@H]1O[C@H](CO)[C@@H](O)[C@H](O)[C@H]1O)[C@H](O)CO [cellobiose]
Km [1]: ~10 mM
Km [2]: 12.1 ± 4.6 mM
kcat [2]: 1430 ± 850 s⁻¹

(1R,2R)-N-Nz-1-(4-nitrophenyl)propane-1,3-diol [Compound 11]
conversion of probe by CAT (NIMS mass shift) [3]: the peak shifts by 42 mass units, as expected from monoacetylation

[N-]=[N+]=NCCOC(=O)C1=CCCCC1 [CAEE, cyclohexenecarboxylate azidoethyl ester]
conversion of probe by cytochrome P450BM3 (NIMS mass shift) (cytochrome P450BM3): 16-mass unit shift relative to the GFP control

C#CCCCC(=O)N[C@H](CO)[C@H](O)c1ccc([N+](=O)[O-])cc1 [ChlorHexy, chloramphenicol 5-hexynamide]
CAT activity detected with probe [4]: CAT activity was detected
CAT activity detected with probe [5]: CAT activity was detected
